Source: publication PMC5971303, “α-Amylase and α-Glucosidase Inhibitory Activities of Chemical Constituents from Wedelia chinensis (Osbeck.) Merr. Leaves” (Journal of Analytical Methods in Chemistry, 2018)
pIC50: −log10 of the molar value.

Columns and labels:
[1] = target: T1, porcine pancreas α-amylase (Sus scrofa, UniProt P00690); assay: Assay for α-amylase inhibition (potato starch substrate, iodine, absorbance at 650 nm); assay type: biochemical; conditions: for pIC50: porcine pancreas α-amylase, tested three times, mean ± SD; for α-amylase inhibitory effect (in words): compared with acarbose
T1 construct: purchased Sigma-Aldrich A3176
T1 sequence (P00690 16-511): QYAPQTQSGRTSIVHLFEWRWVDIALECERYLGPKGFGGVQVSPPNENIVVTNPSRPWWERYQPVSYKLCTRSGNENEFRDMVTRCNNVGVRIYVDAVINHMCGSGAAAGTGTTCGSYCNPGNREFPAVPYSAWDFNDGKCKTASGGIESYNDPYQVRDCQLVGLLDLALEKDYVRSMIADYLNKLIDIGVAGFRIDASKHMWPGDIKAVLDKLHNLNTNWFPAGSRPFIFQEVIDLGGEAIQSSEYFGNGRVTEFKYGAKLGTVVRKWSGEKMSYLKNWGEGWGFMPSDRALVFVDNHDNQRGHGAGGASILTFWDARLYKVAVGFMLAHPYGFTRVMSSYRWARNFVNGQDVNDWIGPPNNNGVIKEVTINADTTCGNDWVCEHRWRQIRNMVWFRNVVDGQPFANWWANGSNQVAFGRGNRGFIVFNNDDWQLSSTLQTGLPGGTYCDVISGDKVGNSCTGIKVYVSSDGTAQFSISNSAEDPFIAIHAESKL
Description: The substrate was prepared by boiling 100 mg potato starch in 5 mL phosphate buffer (pH 7.0) for 5 min and then cooling to room temperature. The sample ([…] dissolved in DMSO) and substrate ([…]) were mixed in […] of 0.1 M phosphate buffer (pH 7.0). After 5 min preincubation, 5 mg/mL α-amylase solution (20 mL) was added, and the solution was incubated at 37°C for 15 min. The reaction was stopped by adding […] of 1 M·HCl, and then, […] of iodine solution was added. The absorbances were measured at 650 nm by a microplate reader. […] The inhibitory activity was calculated by the following equation: α-amylase inhibitory activity (%) = (1–A/A0) × 100, where A is the absorbance of the sample and A0 is the absorbance of the blank, respectively. The IC50 value was calculated by GraphPad Prism.
(§1) Inhibition of α-glucosidase is one very effective way of delaying glucose absorption and lowering the postprandial blood glucose level, which can potentially suppress the progression of DM.

yeast α-glucosidase = assay: Assay for α-glucosidase inhibition (p-nitrophenyl-α-D-glucopyranoside substrate, absorbance at 405 nm); assay type: biochemical; conditions: for α-Glucosidase IC50 ± SD: tested three times, mean ± SD; for α-glucosidase inhibitory effect (in words): compared with acarbose
Description: The yeast α-glucosidase (G0660, Sigma-Aldrich) inhibition assay was performed using the substrate p-nitrophenyl-α-D-glucopyranoside according to the previously described method. […] After 5 min preincubation, 5 mM p-nitrophenyl-α-D-glucopyranoside solution ([…]) was added, and the solution was incubated at 37°C for 30 min. […]. Each concentration of samples was carried out in triplicate. The absorbance of released 4-nitrophenol was measured at 405 nm by using a microplate reader (xMark, Bio-Rad, USA). […] The inhibitory activity was calculated by the following equation: α-glucosidase inhibitory activity (%) = (1–A/A0) × 100, where A is the absorbance of the sample and A0 is the absorbance of the blank, respectively. The IC50 value was calculated by GraphPad Prism.
as §1

SMILES | pIC50 [1] | α-Glucosidase IC50 ± SD (yeast α-glucosidase; yeast α-glucosidase) | α-amylase inhibitory effect (in words) [1] | α-glucosidase inhibitory effect (in words) (yeast α-glucosidase) | α-Glucosidase inhibition (symbol in IC50 column) (yeast α-glucosidase; yeast α-glucosidase, dash = no inhibition (less than 10% inhibition))
COc1cc(-c2cc(=O)c3c(O)c(OC)c(O)cc3o2)ccc1O [Compound 7, jaceosidin] | 3.47 | 785.9 ± 12.7 µg/mL | – | – | –
CC(O)C=CC12OC1(C)C(O)C(OS(=O)(=O)O)CC2(C)C [Compound 1, (3S,4R,5R,6S,9S,7E)-megastigman-5,6-epoxy-7-ene,4,9-diol,3-sulfonic acid] | 2.87 | 915.6 ± 36.5 µg/mL | moderate | moderate | –
C[C@@H]1CC[C@]2(C(=O)O)CC[C@]3(C)C(=CC[C@@H]4[C@@]5(C)CC[C@H](O)C(C)(C)[C@@H]5CC[C@]43C)[C@@H]2[C@]1(C)O [Compound 9, pomolic acid] | 3.08 | 821.4 ± 55.2 µg/mL | moderate | moderate | –
C[C@@H]1CC[C@]2(C(=O)O)CC[C@]3(C)C(=CC[C@@H]4[C@@]5(C)CCC(=O)C(C)(C)[C@@H]5CC[C@]43C)[C@@H]2[C@]1(C)O [Compound 8, pomonic acid] | 3.05 | – | moderate | moderate | — ((‒): no inhibition (less than 10% inhibition))
